Source: article PMC9068721, “Evaluation of MxOy/fucoidan hybrid system and their application in lipase immobilization process” (Scientific Reports, 2022)

System: T1, lipase from Aspergillus niger (LAN)
T1 construct: gene lipA; commercial Sigma-Aldrich lipase preparation from Aspergillus niger, free (not immobilized)
Test: p-nitrophenol release at […] nm, Hanes-Woolf plot
Format: biochemical
Conditions: free enzyme, 30 °C, 2 min, 1000 rpm; substrate solution range printed as 0.005–1.5 M; apparent

Km: 580 ± 20 µM
SMILES: CCCCCCCCCCCCCCCC(=O)Oc1ccc([N+](=O)[O-])cc1 [p-nitrophenyl palmitate]
